These are literature values, as cited in publication PMC11912748, “Image-Guided Monitoring of Mitochondria and Blood–Brain Barrier Dysfunction in Amyotrophic Lateral Sclerosis Mice” (Biomaterials Research, 2025).

For the data set the following is noted: in DMSO, cited from earlier work.

As for `CC1(C)C(/C=C/C=C/C=C/C=C2\N(CCCCS(=O)(=O)O)c3ccc4ccccc4c3C2(C)C)=[N+](CCCCS(=O)(=O)[O-])c2ccc3ccccc3c21` [ICG, indocyanine green], the Molar absorptivity was 232,000 M^−1 cm^−1. For the setting “reference standard”, the “QY (quantum yield)” value is 13%.
